Entries after “also recorded” stand apart in the source; their conditions may differ.
Experiments:
rat bladder strips = experiment: Isolated rat bladder strips: inhibition of carbachol-evoked contraction
Procedure: Isolated Rat Bladder Strips
Male rats (Harlan, Sprague Dawley, 250-350 g) were sacrificed by decapitation, the bladder removed and cleaned of connective tissue. Strips of bladder were then cut from the bladder body and each was placed in an organ bath, suspended between a fixed hook and a force transducer, containing oxygenated physiological buffer (composition in mM: NaCl 118.4, KCl 4.7, KH2PO4 1.2, MgSO4 1.3, CaCl2 1.8, glucose 10.1, NaHCO3 25, gassed with 95%O2/5%CO2) and maintained at 37° C. Force generated by the bladder strips was recorded and measured using an AcqKnowledge data acquisition system (AcqKnowledge for MP100WS, Biopac Systems Inc., Goleta, Calif.).
The bladder strips were primed by stimulating them with 10 μM carbachol to evoke a contraction. The strips were then washed multiple times with fresh physiological buffer and allowed to fully relax. Following a period of recovery, the strips were again challenged with 10 μM carbachol to produce a contraction; this contractile response served as the control response. The strips were again washed multiple times and allowed to fully relax (45 minutes). Test compound or vehicle was then added to each organ bath. Following a one hour incubation period, the strips were again stimulated with 10 μM carbachol and the contractile response measured.
The percent inhibition of the carbachol response by the test compounds was calculated by comparing control and post-compound carbachol responses corrected for vehicle effects.

[1] = system: Gq signaling in Hek 293 kidney cells; experiment: [Ca2+]i measurement, carbachol-induced calcium signal in HEK 293 cells; format: cell-based, human
Procedure: • 1. HEK 293 or Clonetics primary human bladder smooth muscle cells were plated at a concentration of 7e3 cells/well in Poly-L lysine coated 96 well plates, white with clear bottoms (Costar). • 2. The plates are allowed to attach overnight at 37° C. 5%CO2. The cells were rinsed 2× with Krebs-HEPES buffer and then loaded with 4 uM Fluo4 (Molecular Probes) for 60 minutes in the same buffer containing 1% (wt/vol) Pluronic F-127 and 0.25 mM sulfinpyrazone. • 3. After loading the cells were rinsed 3× with Krebs-HEPES buffer containing 0.5% (wt/vol) BSA (Sigma Chemical) • 4. Buffer alone or buffer containing test compounds, was injected sequentially into separate wells and the fluorescence intensity monitored in a Victor2 96 well plate fluorometer (PE-Wallac). Measurements were taken at 1-s intervals using an excitation wavelength of 485 nm and emissions filter of 535 nm. • 5. Five baseline measurements were taken at 1-s intervals prior to each injection (see FIGS. 4A and 4B).
Calcium assays were run by standard protocols as described above and in Zhu et al., 1998, J. Biol Chem 273:133-142. It is known that calcium signals in response to carbachol have both a Gq and a Go/Gi signaling component. Pertussis toxin is a known inhibitor of Go/Gi signaling in cells. We asked the question if Compound I was inhibiting Gq or Go/Gi signals in Hek 293 kidney cells. […] to block the Go/I but not Gq signals. […] If however Compound I were inhibiting Gq signal specifically, then we would expect the combination of pertussis toxin (hitting Go/Gi) and Gq.

RGS7/Gq = target: T1, RGS7/Gq (Homo sapiens, UniProt P49802+P50148); experiment: Co-immunoprecipitation of Gq with RGS7 from transfected Hek 293 cells; format: binding; conditions: immunoprecipitation blot
T1 sequence (P49802 1-469 isoform P49802-2): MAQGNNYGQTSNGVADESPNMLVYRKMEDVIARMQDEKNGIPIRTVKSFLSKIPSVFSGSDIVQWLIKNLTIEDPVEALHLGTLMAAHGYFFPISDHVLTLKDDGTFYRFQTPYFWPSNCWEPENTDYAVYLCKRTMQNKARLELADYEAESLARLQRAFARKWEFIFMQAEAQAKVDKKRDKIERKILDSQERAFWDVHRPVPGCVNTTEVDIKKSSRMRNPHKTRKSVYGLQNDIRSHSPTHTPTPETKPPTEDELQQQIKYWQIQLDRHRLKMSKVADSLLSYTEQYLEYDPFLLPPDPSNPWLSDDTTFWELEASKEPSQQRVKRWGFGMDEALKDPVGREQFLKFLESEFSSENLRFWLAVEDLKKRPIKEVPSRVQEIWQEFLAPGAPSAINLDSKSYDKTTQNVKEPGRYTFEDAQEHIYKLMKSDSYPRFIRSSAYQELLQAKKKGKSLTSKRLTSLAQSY
T1 sequence (P50148 1-359): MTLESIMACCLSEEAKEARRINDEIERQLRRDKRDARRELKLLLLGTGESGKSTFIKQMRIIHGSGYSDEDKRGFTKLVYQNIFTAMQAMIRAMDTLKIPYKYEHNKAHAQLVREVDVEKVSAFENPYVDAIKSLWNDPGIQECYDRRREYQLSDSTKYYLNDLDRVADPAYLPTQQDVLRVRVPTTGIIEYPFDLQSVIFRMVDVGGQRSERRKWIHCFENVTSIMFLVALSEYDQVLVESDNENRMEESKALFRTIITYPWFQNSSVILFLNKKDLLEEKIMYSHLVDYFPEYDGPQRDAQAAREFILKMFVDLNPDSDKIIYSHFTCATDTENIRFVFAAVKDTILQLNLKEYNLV
T1 sequence (O14775 43-395 partner limits assumed): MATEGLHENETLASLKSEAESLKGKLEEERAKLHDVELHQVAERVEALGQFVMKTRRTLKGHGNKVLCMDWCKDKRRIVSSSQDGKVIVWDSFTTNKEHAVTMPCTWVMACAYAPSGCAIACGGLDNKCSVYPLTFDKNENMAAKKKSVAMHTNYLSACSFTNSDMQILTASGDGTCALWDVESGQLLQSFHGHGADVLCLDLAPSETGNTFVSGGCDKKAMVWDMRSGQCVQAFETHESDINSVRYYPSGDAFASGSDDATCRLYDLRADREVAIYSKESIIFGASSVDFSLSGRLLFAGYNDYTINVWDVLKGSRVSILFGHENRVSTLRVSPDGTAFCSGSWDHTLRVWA
Procedure: Hek 293 cells were transfected with CMV-G alpha qHA, CMV-mycRGS-7 and CMV-Gbeta5. 48 hours later the cells were harvested and lysed. Antibody to the myc epitope was utilized to immunoprecipitate RGS-7 in the presence or absence of ALF4-. The precipitated proteins were split into two fractions and loaded onto gels and western blotted on to nitrocellulose. In FIG. 6, the left blot (1) was probed with anti-myc antibody to detect RGS-7. RGS-7 was immunoprecipitated by the anti-myc antibody in the presence and absence of ALF4-. […] A G alpha q protein band was detected to have associated with RGS-7 and precipitated in the presence of ALF4- (lanes A) but not in the absence of ALF4- (lane B). In the second experiment, RGS-7 was immuno-precipitated again with the Myc epitope to which it was fused and the presence of G alpha q was detected in the presence or absence of ALF4- or different concentrations of Compound III. […] This increase in RGS-7 affinity would be predicted to be the same for other RGS7 family members such as RGS 6,9 and 11, as they have been shown previously to have similar affinities and effects on G alpha q. In addition this assay provides a method for screening for compounds that affect the interaction of RGS proteins and G alpha q.
In FIG. 5B, Compounds I, II and III affect the affinity of Gq and RGS proteins for one another. FIG. 5B is an immunoprecipitation blot of myc tagged RGS which has been probed with an anti hemagglutinin antibody to detect a hemagglutinin tagged Gαq. […] The ability of Compounds I, II and III to increase the affinity of Gq and RGS is a novel mechanism by which one can Gαq activity and such compounds and screens for additional compounds with such activity are useful wherever one desires to antagonize g protein signaling that involves Gαq and RGS proteins. […]

C. elegans = C. elegans compound treatment: neuromuscular and egg-laying phenotypes
Procedure: C. elegans strains were cultured and maintained according to standard procedures (Brenner, 1974; Hodgkin, 1988). All strains were assayed at 20° C. unless otherwise indicated. compound was mixed with killed bacteria slurry (strain OP50, taken through multiple freeze-thaw cycles) to 2× desired final concentration. Adult wildtype (Bristol N2) or mutant hermaphrodites were collected in M9. Worms were mixed 1:1 with compound/bacteria mixture, and plated on peptone-free NGM plates. Plates were allowed to dry, and then placed at 20° C. until assayed. For egg-laying assays, adults were treated overnight with compound. Approximately thirty animals were loaded onto agar pads made on glass slides and examined under Nomarski optics. Animals were scored as egg-laying defective if they contained>comma stage embryos.

Molecule	inhibition at 3 µM (rat bladder strips; Rattus norvegicus, 3 μM compound, 1 h incubation, 10 μM carbachol, read-out: Inhibition of the carbachol response)	Carbachol induced calcium influxes [1]	Affinity of RGS7 and Gq (Gq co-precipitated with myc-RGS-7) (RGS7/Gq)	Relaxation of bladder smooth muscle strips contracted with carbachol (rat bladder strips)	inhibition at 10 µM (rat bladder strips; Rattus norvegicus, 10 μM compound, 1 h incubation, 10 μM carbachol, read-out: Inhibition of the carbachol response)	Neuromuscular defects (pharyngeal pumping, body movement, egg-laying) (C. elegans)	Combined effect with pertussis toxin on carbachol calcium signal [1]	Effect on function of human RGS and Gq signaling proteins via Ca++ signaling [1]	Gq versus Go/Gi specificity of calcium signal inhibition ([1]; carbachol)
O=c1[nH]c(-c2ccc(Br)s2)nn1-c1cc(Cl)c(Br)cc1O [Compound II, 2-(4-bromo-5-chloro-2-hydroxyphenyl)-2,4-dihydro-5-(5-bromothien-2-yl)-3H-1,2,4-triazol-3-one]	20 to 40%	blocked	clearly increase the affinity of Gq for RGS	–	–	–	–	–	–
O=c1[nH]c(-c2ccc(C(F)(F)F)cc2)nn1-c1cc(Cl)ccc1O [Compound I]	–	blocked	increase the affinity of RGS7 with Gq; also recorded: clearly increase the affinity of Gq for RGS	capable of relaxing strips of bladder smooth muscle	40 to 60%	causes neuromuscular defects	cumulative	clearly able to effect the function of Gq and RGS	specifically inhibiting Gq signaling and not Go/Gi
Alf4- [reference compound]	–	–	increases its affinity with RGS	–	–	–	–	–	–

Reference: patent US7846671B2, “Methods of screening for agents that modulate the interaction of RGS and Gαq and urinary incontinence” (Bristol-Myers Squibb Company, priority 2002, dated 2010)
